# According to patent publication US9512107B2, “Therapeutically active compositions and their methods of use” (Agios Pharmaceuticals, Inc., priority 2012, dated 2016):
# Residue numbers refer to the chain shown, from its start.
# Experiments:
# [1] = test system: U87MG pLVX-IDH2 R140Q-neo cells; experiment: U87MG pLVX-IDH2 R140Q-neo cell based assay, 2-HG in media by LC-MS at 48 hours; conditions: Homo sapiens, U-87 MG
# Procedure, shortened: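 2-HG secreted into the medium was measured by LC-MS after 48 h of compound treatment (0.2% DMSO final) of U87MG pLVX-IDH2 R140Q-neo cells in DMEM/10% FBS. The same wells were assayed at 72 h by CellTiter-Glo luminescence for effects on growth.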
# IDH2 R172K = target: T1, IDH2 R172K (Homo sapiens, UniProt P48735, R172K); experiment: IDH2 R172K enzymatic assay (NADPH cofactor depletion, diaphorase/resazurin readout); assay type: biochemical; conditions: read-out: Enz R172K
# T1 sequence (P48735 40-452 R172K): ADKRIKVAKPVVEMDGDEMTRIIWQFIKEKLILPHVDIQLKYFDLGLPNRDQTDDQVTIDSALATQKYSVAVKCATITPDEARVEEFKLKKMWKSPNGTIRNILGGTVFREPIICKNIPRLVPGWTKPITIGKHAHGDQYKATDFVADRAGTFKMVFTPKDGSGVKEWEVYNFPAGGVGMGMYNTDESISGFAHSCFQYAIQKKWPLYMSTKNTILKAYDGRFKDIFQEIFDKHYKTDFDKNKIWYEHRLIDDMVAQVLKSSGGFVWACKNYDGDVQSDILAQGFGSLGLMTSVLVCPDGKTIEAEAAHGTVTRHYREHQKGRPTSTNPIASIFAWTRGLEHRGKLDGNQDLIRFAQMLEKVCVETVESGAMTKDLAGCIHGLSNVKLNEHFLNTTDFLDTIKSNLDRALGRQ
# Protocol: Compounds are assayed for IDH2 R172K inhibitory activity through a cofactor depletion assay. […] The reaction is terminated by the addition of a second enzyme, diaphorase, and a corresponding substrate, resazurin. Diaphorase reduces resazurin to the highly fluorescent resorufin with the concomitant oxidation of NADPH to NADP, both halting the IDH2 reaction by depleting the available cofactor pool and facilitating quantitation of the amount of cofactor remaining after a specific time period through quantitative production of an easily detected fluorophore.
# The test compound is then incubated for one hour at room temperature with the enzyme; before starting the IDH2 reaction with the addition of 10 μl of substrate mix containing 50 μM NADPH and 6.3 mM α-KG in the buffer described above. After a further one hour of incubation at room temperature, the reaction is halted and the remaining NADPH measured through conversion of resazurin to resorufin by the addition of 25 μl Stop Mix (36 μg/ml diaphorase enzyme and 60 μM resazurin; in buffer).
# IDH2 R140Q = target: T2, IDH2 R140Q (Homo sapiens, UniProt P48735, R140Q); experiment: IDH2 R140Q enzymatic assay (cofactor depletion, similar format); assay type: biochemical; conditions: read-out: Enz R140Q
# T2 sequence (P48735 40-452 R140Q): T1 sequence (P48735 40-452 R172K) with R101Q, K133R
SMILES,IC50 [1] [nM],IC50 (IDH2 R172K) [nM],IC50 (IDH2 R140Q) [nM]
"CC(C)(CO)Nc1nc(Nc2ccnc(C(F)(F)F)c2)nc(-c2cccc(C(F)(F)F)n2)n1 [Compound 562, 2-Methyl-2-[4-(6-trifluoromethyl-pyridin-2-yl)-6-(2-trifluoromethyl-pyridin-4-ylamino)-[1,3,5]triazin-2-ylamino]-propan-1-ol]",< 100,< 100,100 to 1000
"CC(C)(O)CNc1nc(Nc2ccnc(C(F)(F)F)c2)nc(-c2cccc(O)c2)n1 [Compound 641, 3-(4-((2-hydroxy-2-methylpropyl)amino)-6-((2-(trifluoromethyl)pyridin-4-yl)amino)-1,3,5-triazin-2-yl)phenol]",< 100,< 100,100 to 1000
CC(C)Nc1nc(Nc2cccc(S(=O)(=O)NCC(F)(F)F)c2)nc(-c2cccc(C(F)(F)F)n2)n1 [Compound 519],< 100,100 to 1000,100 to 1000
"CC(C)Nc1nc(Nc2cccc(F)c2)nc(-c2cccc(N)n2)n1 [Compound 492, 6-(6-aminopyridin-2-yl)-N2-(3-fluorophenyl)-N4-isopropyl-1,3,5-triazine-2,4-diamine]",< 100,< 100,100 to 1000
"CC(C)Nc1nc(Nc2ccnc(C(F)F)c2)nc(-c2cccc(C(F)(F)F)n2)n1 [Compound 551, N-(2-Difluoromethyl-pyridin-4-yl)-N′-isopropyl-6-(6-trifluoromethyl-pyridin-2-yl)-[1,3,5]triazine-2,4-diamine]",< 100,< 100,100 to 1000
"Fc1ccccc1-c1nc(Nc2cncc(C(F)(F)F)c2)nc(NC2COC2)n1 [Compound 629, 6-(2-Fluoro-phenyl)-N-oxetan-3-yl-N′-(5-trifluoromethyl-pyridin-3-yl)-[1,3,5]triazine-2,4-diamine]",< 100,< 100,< 100
"CC(C)Nc1nc(Nc2cccc(C#N)c2)nc(-c2ccccn2)n1 [Compound 246, 3-(4-(isopropylamino)-6-(pyridin-2-yl)-1,3,5-triazin-2-ylamino)benzonitrile]",< 100,100 to 1000,100 to 1000
"COCC(C)Nc1nc(Nc2ccnc(C(F)(F)F)c2)nc(-c2cccc(Cl)n2)n1 (stereo not drawn) [Compound 499, 6-(6-Chloro-pyridin-2-yl)-N-(2-methoxy-1-methyl-ethyl)-N′-(2-trifluoromethyl-pyridin-4-yl)-[1,3,5]triazine-2,4-diamine]",< 100,< 100,100 to 1000
"CC(C)Nc1nc(Nc2cc(Cl)cc(S(C)(=O)=O)c2)nc(-c2cccc(C(F)(F)F)n2)n1 [Compound 561, N-(3-Chloro-5-methanesulfonyl-phenyl)-N′-isopropyl-6-(6-trifluoromethyl-pyridin-2-yl)-[1,3,5]triazine-2,4-diamine]",< 100,< 100,100 to 1000
"Nc1cccc(-c2nc(NCC3CC3)nc(Nc3cc(F)cc(F)c3)n2)n1 [Compound 699, 6-(6-aminopyridin-2-yl)-N2-(cyclopropylmethyl)-N4-(3,5-difluorophenyl)-1,3,5-triazine-2,4-diamine]",< 100,< 100,100 to 1000
"CC(C)Nc1nc(Nc2cncc(C(F)(F)F)c2)nc(-c2nccc(C(F)(F)F)n2)n1 [Compound 536, N-Isopropyl-N′-(5-trifluoromethyl-pyridin-3-yl)-6-(4-trifluoromethyl-pyrimidin-2-yl)-[1,3,5]triazine-2,4-diamine]",< 100,100 to 1000,1000 to 10000
CC(C)Nc1nc(Nc2ccon2)nc(-c2ccccc2)n1 [Compound 169],100 to 1000,100 to 1000,< 100
"CC(C)Nc1nc(Nc2cccc(S(C)(=O)=O)c2)nc(-c2nc(C(F)(F)F)ccc2F)n1 [Compound 484, 6-(3-fluoro-6-(trifluoromethyl)pyridin-2-yl)-N2-isopropyl-N4-(3-(methylsulfonyl)phenyl)-1,3,5-triazine-2,4-diamine]",< 100,100 to 1000,100 to 1000
"CC(C)Nc1nc(Nc2ccccc2)nc(-c2cccc(C(F)(F)F)n2)n1 [Compound 247, N^2-isopropyl-N^4-phenyl-6-(6-(trifluoromethyl)pyridin-2-yl)-1,3,5-triazine-2,4-diamine]",< 100,< 100,< 100
"CC1(Nc2nc(Nc3cc(F)cc(F)c3)nc(-c3cccc(N)n3)n2)CC1 [Compound 693, 6-(6-aminopyridin-2-yl)-N2-(3,5-difluorophenyl)-N4-(1-methylcyclopropyl)-1,3,5-triazine-2,4-diamine]",< 100,< 100,100 to 1000
CC(C)Nc1nc(Nc2ccnc(C(F)(F)F)c2)nc(-c2cccc(C(N)=O)c2)n1 [Compound 651],< 100,100 to 1000,100 to 1000
"CC(C)Nc1nc(Nc2ccncc2)nc(-c2ccccc2F)n1 [Compound 227, 6-(2-fluorophenyl)-N^2-isopropyl-N^4-(pyridin-4-yl)-1,3,5-triazine-2,4-diamine]",< 100,100 to 1000,< 100
"CC(C)Nc1nc(Nc2ccnc(C(F)(F)F)c2)nc(-c2cccc([S+](C)[O-])c2)n1 (stereo not drawn) [Compound 653, N-Isopropyl-6-(3-methanesulfinyl-phenyl)-N′-(2-trifluoromethyl-pyridin-4-yl)-[1,3,5]triazine-2,4-diamine]",< 100,100 to 1000,100 to 1000

# The remaining lines, values ahead:
IC50 [1] [nM],IC50 (IDH2 R172K) [nM],IC50 (IDH2 R140Q) [nM],SMILES
< 100,100 to 1000,< 100,"O=C(Nc1nc(Nc2ccccc2)nc(-c2ccccc2)n1)C1CC1 [Compound 233, N-(4-phenyl-6-(phenylamino)-1,3,5-triazin-2-yl)cyclopropanecarboxamide]"
1000 to 10000,1000 to 10000,100 to 1000,CC(C)Nc1nc(Cc2ccccc2)nc(Nc2ccccc2)n1 [Compound 103]
100 to 1000,100 to 1000,< 100,"CC(C)(C)COC(=O)Nc1nc(Nc2ccccc2)nc(-c2ccccc2)n1 [Compound 208, Neopentyl 4-phenyl-6-(phenylamino)-1,3,5-triazin-2-ylcarbamate]"
< 100,100 to 1000,< 100,"CC(C)Nc1nc(Nc2cncc(F)c2)nc(-c2ccccc2)n1 [Compound 193, N^2-(5-fluoropyridin-3-yl)-N^4-isopropyl-6-phenyl-1,3,5-triazine-2,4-diamine]"
< 100,100 to 1000,< 100,"CCS(=O)(=O)c1cccc(Nc2nc(NC(C)C)nc(-c3ccccc3)n2)c1 [Compound 205, N^2-(3-(ethylsulfonyl)phenyl)-N^4-isopropyl-6-phenyl-1,3,5-triazine-2,4-diamine]"
100 to 1000,1000 to 10000,100 to 1000,"c1ccc(-c2nc(Nc3ccncc3)nc(NC3COC3)n2)cc1 [Compound 236, N^2-(oxetan-3-yl)-6-phenyl-N^4-(pyridin-4-yl)-1,3,5-triazine-2,4-diamine]"
< 100,100 to 1000,< 100,COc1ccccc1-c1nc(Nc2ccccc2)nc(NC(C)C)n1 [Compound 120]
100 to 1000,100 to 1000,< 100,"CC(C)OC(=O)Nc1nc(Nc2ccccc2)nc(-c2ccccc2)n1 [Compound 160, isopropyl 4-phenyl-6-(phenylamino)-1,3,5-triazin-2-ylcarbamate]"
100 to 1000,100 to 1000,< 100,CC1(C(=O)Nc2nc(Nc3ccccc3)nc(-c3ccccc3)n2)CC1 [Compound 245]
100 to 1000,1000 to 10000,100 to 1000,"c1ccc(-c2nc(Nc3ccncc3)nc(NC3CCOC3)n2)cc1 (stereo not drawn) [Compound 235, 6-phenyl-N^2-(pyridin-4-yl)-N^4-(tetrahydrofuran-3-yl)-1,3,5-triazine-2,4-diamine]"
1000 to 10000,> 10000,100 to 1000,c1ccc(Nc2nc(NCc3ccccn3)nc(-c3ccccc3)n2)cc1 [Compound 135]
